#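 48-hour exposure; five concentrations; linearly interpolated endpoints. The concentration for 50% growth inhibition is given as GI50.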 Calls of active or inactive are those of the source. Rule as the data show it: active = GI50 up to about 1.1 µM and inactive = higher.
# Key:
# Test in all cases: NCI tumour cell line growth inhibition, 48 h
# UACC-62 = system: UACC-62
# COLO 205 = system: COLO 205
# RPMI-8226 = system: RPMI-8226
# HCC 2998 = system: HCC 2998
# M14 = system: M14
# A549 = system: A549
# KM12 = system: KM12
# SK-MEL-5 = system: SK-MEL-5
# Malme-3M = system: Malme-3M
# 786-0 = system: 786-0
# SN12C = system: SN12C
# U-251 = system: U-251
# IGROV-1 = system: IGROV-1
# ACHN = system: ACHN
# NCI-H460 = system: NCI-H460
# RXF 393 = system: RXF 393
SMILES,GI50 (UACC-62),GI50 (COLO 205),GI50 (RPMI-8226),GI50 (HCC 2998),GI50 (M14),GI50 (A549),GI50 (KM12),GI50 (SK-MEL-5),GI50 (Malme-3M),GI50 (786-0),GI50 (SN12C),GI50 (U-251),GI50 (IGROV-1),GI50 (ACHN),GI50 (NCI-H460),GI50 (RXF 393)
COC(=O)C(C)Oc1ccc(O)cc1 (stereo not given),> 100 µM (inactive),> 100 µM (inactive),> 100 µM (inactive),> 100 µM (inactive),> 100 µM (inactive),63 µM (inactive),> 100 µM (inactive),> 100 µM (inactive),> 100 µM (inactive),> 100 µM (inactive),> 100 µM (inactive),> 100 µM (inactive),> 100 µM (inactive),> 100 µM (inactive),> 100 µM (inactive),
CN(C)CC(/C(Cc1ccccc1)=N\NC(=O)c1ccncc1)c1ccccc1 (stereo not given),31 µM (inactive),30.8 µM (inactive),16.4 µM (inactive),39.1 µM (inactive),25.5 µM (inactive),30.3 µM (inactive),,19 µM (inactive),28.8 µM (inactive),30 µM (inactive),46.2 µM (inactive),,47.6 µM (inactive),27.5 µM (inactive),,28.7 µM (inactive)
O=C1Cc2ccccc2N1/N=C\c1ccc(O)cc1,> 100 µM (inactive),> 100 µM (inactive),58.1 µM (inactive),> 100 µM (inactive),> 100 µM (inactive),64.9 µM (inactive),> 100 µM (inactive),44.1 µM (inactive),> 100 µM (inactive),> 100 µM (inactive),> 100 µM (inactive),> 100 µM (inactive),> 100 µM (inactive),53.7 µM (inactive),> 100 µM (inactive),
O=C1C=Cc2noc3cccc1c23,3.06 µM (inactive),17 µM (inactive),2.01 µM (inactive),14.7 µM (inactive),9.08 µM (inactive),19 µM (inactive),4.85 µM (inactive),10.5 µM (inactive),12.3 µM (inactive),7.08 µM (inactive),11.7 µM (inactive),13.4 µM (inactive),12.9 µM (inactive),2.76 µM (inactive),,2.52 µM (inactive)
O=C(/C=C/c1ccccc1O)c1ccc([N+](=O)[O-])cc1,14.7 µM (inactive),12.5 µM (inactive),,16.5 µM (inactive),20.9 µM (inactive),22.5 µM (inactive),18.5 µM (inactive),20.1 µM (inactive),44 µM (inactive),17.3 µM (inactive),15.5 µM (inactive),14.6 µM (inactive),12.9 µM (inactive),11.9 µM (inactive),22.7 µM (inactive),11 µM (inactive)
CC(C)COC(=O)c1ccc(/N=C\c2ccc(/C=N/c3ccc(C(=O)OCC(C)C)cc3)cc2)cc1,> 100 µM (inactive),> 100 µM (inactive),> 100 µM (inactive),> 100 µM (inactive),> 100 µM (inactive),> 100 µM (inactive),> 100 µM (inactive),,> 100 µM (inactive),> 100 µM (inactive),> 100 µM (inactive),> 100 µM (inactive),> 100 µM (inactive),> 100 µM (inactive),> 100 µM (inactive),
COc1cc(/C=C(\NC(=O)c2ccccc2)c2nc3cncnc3[nH]2)cc(OC)c1OC,> 100 µM (inactive),> 100 µM (inactive),,> 100 µM (inactive),> 100 µM (inactive),> 100 µM (inactive),> 100 µM (inactive),> 100 µM (inactive),> 100 µM (inactive),> 100 µM (inactive),> 100 µM (inactive),> 100 µM (inactive),> 100 µM (inactive),> 100 µM (inactive),,> 100 µM (inactive)
Cc1ccc2nc(NC(=O)C(=O)C(C#N)c3ccc(Cl)cc3)sc2c1 (stereo not given),> 50 µM (inactive),> 50 µM (inactive),> 50 µM (inactive),> 50 µM (inactive),> 50 µM (inactive),> 50 µM (inactive),> 50 µM (inactive),,> 50 µM (inactive),> 50 µM (inactive),> 50 µM (inactive),> 50 µM (inactive),> 50 µM (inactive),> 50 µM (inactive),> 50 µM (inactive),> 50 µM (inactive)
NCCNC(=O)c1cccc2cc3ccccc3nc12,2.75 µM (inactive),1.07 µM (active),3.85 µM (inactive),2.65 µM (inactive),3.53 µM (inactive),1.27 µM (inactive),4.03 µM (inactive),2.23 µM (inactive),0.495 µM (active),7.6 µM (inactive),2.45 µM (inactive),2.11 µM (inactive),3.48 µM (inactive),1.02 µM (active),,2.31 µM (inactive)
CNc1nc(N)cc(O)n1,> 100 µM (inactive),> 100 µM (inactive),> 100 µM (inactive),> 100 µM (inactive),> 100 µM (inactive),> 100 µM (inactive),> 100 µM (inactive),> 100 µM (inactive),> 100 µM (inactive),> 100 µM (inactive),> 100 µM (inactive),> 100 µM (inactive),> 100 µM (inactive),> 100 µM (inactive),> 100 µM (inactive),
O=C(CCc1ccccc1)On1nnc2ccccc2c1=O,> 100 µM (inactive),> 100 µM (inactive),,> 100 µM (inactive),> 100 µM (inactive),> 100 µM (inactive),> 100 µM (inactive),> 100 µM (inactive),> 100 µM (inactive),> 100 µM (inactive),> 100 µM (inactive),> 100 µM (inactive),> 100 µM (inactive),> 100 µM (inactive),> 100 µM (inactive),> 100 µM (inactive)
CC(=O)OCC(=O)[C@@]1(O)CC[C@H]2[C@@H]3C[C@H](C)C4=CC(=O)C=C[C@]4(C)[C@@]3(F)[C@@H](O)C[C@@]21C,80.4 µM (inactive),> 100 µM (inactive),23.7 µM (inactive),> 100 µM (inactive),> 100 µM (inactive),> 100 µM (inactive),> 100 µM (inactive),> 100 µM (inactive),> 100 µM (inactive),> 100 µM (inactive),,60.4 µM (inactive),> 100 µM (inactive),> 100 µM (inactive),> 100 µM (inactive),> 100 µM (inactive)
Cc1c(C(=O)/C=C/c2cccc3ccccc23)[n+]([O-])c2ccccc2[n+]1[O-],11.3 µM (inactive),13.9 µM (inactive),12 µM (inactive),16.8 µM (inactive),13.7 µM (inactive),16.4 µM (inactive),14 µM (inactive),,18.6 µM (inactive),12.6 µM (inactive),14.1 µM (inactive),14.8 µM (inactive),12.9 µM (inactive),15.3 µM (inactive),15.3 µM (inactive),10.1 µM (inactive)
O=C1c2ccccc2C(=O)c2c1ccc(O)c2O [ATHRAQUINONES A],25.4 µM (inactive),34.5 µM (inactive),36.5 µM (inactive),33.1 µM (inactive),77.6 µM (inactive),> 10 µM (inactive),57.8 µM (inactive),,,63 µM (inactive),42.3 µM (inactive),38.6 µM (inactive),35.6 µM (inactive),34.8 µM (inactive),38.9 µM (inactive),40.8 µM (inactive)
